From patent US20240425464A1, “Substituted Monohydrazides as Potent Antifungal Agents” (University of Kentucky Research Foundation, priority 2023, published 2024)
≈ marks a conversion by molar mass, not a printed value. Where two headings read alike, the source gives them in different places.

Assays:
Assay in all cases: MIC determination by in vitro antifungal assay
Assay type in all cases: cell-based
[1] = system: Candida krusei ATCC 6258 (I)
Procedure: (§1) 10 mg/mL stock solutions of compounds 1a-9j were prepared in dimethyl sulfoxide (DMSO) and were stored at −20° C. in the dark. The antifungal agent amphotericin B (AmB) was purchased from VWR (Radnor PA, USA). AmB was dissolved in DMSO at a final concentration of 5 mg/mL and was stored at −20° C., protected from light. Candida albicans American Type Culture Collection (ATCC) 10231 (strain A), C. albicans ATCC 64124 (B), and C. albicans ATCC MYA-2876 (C) were obtained from Utah State University. C. albicans ATCC 90819 (D), C. albicans ATCC MYA-2310 (E), C. albicans ATCC MYA-1237 (F), C. albicans ATCC MYA-1003 (G), Candida glabrata ATCC 2001 (H), Candida krusei ATCC 6258 (I), Candida parapsilosis ATCC 22019 (J), Cryptococcus neoformans ATCC MYA-895 (M), Aspergillus terreus ATCC MYA-3633 (N), and Aspergillus flavus ATCC MYA-3631 (0) were obtained from the American Type Culture Collection (ATCC; Manassas, VA, USA). Aspergillus nidulans ATCC 38163 (P) was obtained from University of Kentucky. Clinically derived Aspergillus fumigatus NRRL 163 (Q), A. fumigatus NRRL 5109 (R), and A. fumigatus NRRL 6113 (S) were obtained from Northern Regional Research Laboratory (NRRL). Candida auris 384 (K), C. auris 390 (L), and fungal strains 381-400 (including 10 C. auris (AR Bank #381-390), 3 Candida duobushaemulonii (AR Bank #391, AR Bank #392, and AR Bank #394), 2 Candida haemulonii (AR Bank #393 and AR Bank #395), 1 Kodameae ohmeri (AR Bank #396), 1 C. krusei (AR Bank #397), 1 Candida lusitaniae (AR Bank #398), and 2 Saccharomyces cerevisiae strains (AR Bank #399 and AR Bank #400)) were part of a larger fungal library from the AR Bank maintained by the Centers for Disease Control and Prevention (CDC; Atlanta, GA, USA). Filamentous fungi and yeasts were cultivated at 35° C. in RPMI 1640 medium (with L-glutamine, without sodium bicarbonate, Sigma-Aldrich, St. Louis, MO) buffered to a pH of 7.0 with 0.165 M morpholinepropanesulfonic acid (MOPS) buffer (Sigma-Aldrich). For cytotoxicity assays, HepG2 and the mouse macrophage cell line J774A.1 were obtained from University of Kentucky. The human embryonic kidney cell line, HEK-293, was bought from the ATCC. Mammalian cells were grown in Dulbecco's Modified Eagle's Medium (DMEM) (from VWR) with 10% fetal bovine serum (FBS) (from VWR) and 1% Pen/Strep (from ATCC). Cell lines were cultured at 37° C. with 5% CO2 and passaged by trypsinization with 0.05% trypsin: 0.53 mM EDTA (from Sigma-Aldrich).
(§2) The MIC values of compounds 1a-9j against yeast cells (strains A-P and 381-400) were determined in 96-well plates as described in the CLSI documents M27-A3 and M38-A2 with minor modifications.^2 A single colony of freshly prepared yeast cells was used to inoculate 5 mL of yeast extract peptone dextrose (YPD) broth prior to incubation overnight with shaking at 200 rpm at 35° C. From the actively growing yeast culture, 100 µL were then transferred to 900 μL of RPMI 1640 medium and re-adjusted to achieve OD600 of 0.12 (˜1×10^6 CFU/mL). The cell suspension was further diluted to achieve 1:100 in RPMI 1640 medium. 100 μL of cells were added to the wells of a 96-well microtiter plates that contained 100 µL of the compound solution to obtain concentrations of 0.06-31.3 μg/mL of compounds 1a-9j or AmB prior to incubation for 48 h at 35° C. […]

[2] = system: Candida glabrata ATCC 2001 (H); details: ATCC 2001 in text
Procedure: as §1, §2

[3] = system: Candida parapsilosis ATCC 22019 (J)
Procedure: as §1, §2

[4] = system: Cryptococcus neoformans ATCC MYA-895 (M); details: strain M = C. neoformans ATCC MYA-895
Procedure: as §1
(§3) The MIC values of compounds 1a-9j against yeast cells (strains A-P and 381-400) were determined in 96-well plates as described in the CLSI documents M27-A3 and M38-A2 with minor modifications.^2 A single colony of freshly prepared yeast cells was used to inoculate 5 mL of yeast extract peptone dextrose (YPD) broth prior to incubation overnight with shaking at 200 rpm at 35° C. From the actively growing yeast culture, 100 µL were then transferred to 900 μL of RPMI 1640 medium and re-adjusted to achieve OD600 of 0.12 (˜1×10^6 CFU/mL). The cell suspension was further diluted to achieve 1:100 in RPMI 1640 medium. 100 μL of cells were added to the wells of a 96-well microtiter plates that contained 100 µL of the compound solution to obtain concentrations of 0.06-31.3 μg/mL of compounds 1a-9j or AmB prior to incubation for 48 h at 35° C.
(§4) Finally, the activity of these monohydrazides was explored against […] non-Candida strains: Cryptococcus neoformans ATCC MYA-895 (M), Aspergillus terreus ATCC MYA-3633 (N), Aspergillus flavus ATCC MYA-3631 (O), Aspergillus nidulans ATCC 38163 (P), Aspergillus fumigatus NRRL 163 (Q), A. fumigatus NRRL 5109 (R), and A. fumigatus NRRL 6113 (S) (Tables 1A and 1B). The double dilution method was used with concentrations ranging from 0.06 to 31.3 j·tg mL^−1 for monohydrazides 1a-9j, and the commercially available positive antifungal control amphotericin B (AmB).

[5] = system: Aspergillus flavus ATCC MYA-3631 (O); details: strain O = A. flavus ATCC MYA-3631
Procedure: as §1, §3, §4

[6] = system: Aspergillus terreus ATCC MYA-3633 (N); details: strain N = A. terreus ATCC MYA-3633
Procedure: as §1, §3, §4

[7] = system: Aspergillus nidulans ATCC 38163 (P)
Procedure: as §1, §3, §4

[8] = Pichia kudriavzevii, ATCC6258, strain I = C. krusei ATCC 6258, read-out: MIC
[9] = Nakaseomyces glabratus, ATCC 2001 / ATCC 2004, strain H = C. glabrata ATCC 2004 (footnote), read-out: MIC
[10] = Lodderomyces parapsilosis, ATCC22019, strain J = C. parapsilosis ATCC 22019, read-out: MIC
[11] = Cryptococcus neoformans, read-out: MIC
[12] = Aspergillus flavus, read-out: MIC
[13] = Aspergillus terreus, read-out: MIC
[14] = Aspergillus nidulans, ATCC38163, strain P = A. nidulans ATCC 38163, read-out: MIC
[15] = strain H = C. glabrata ATCC 2004 (footnote)
[16] = strain J = C. parapsilosis ATCC 22019
[17] = strain P = A. nidulans ATCC 38163

| Structure (SMILES) | MIC [1, 8] [µg/mL] | MIC [2, 9] [µg/mL] | MIC [3, 10] [µg/mL] | MIC [4, 11] [µg/mL] | MIC [5, 12] [µg/mL] | MIC [6, 13] [µg/mL] | MIC [7, 14] [µg/mL] | MIC ([1]; strain I = C. krusei ATCC 6258) [μg/mL^−1] | MIC [2, 15] [μg/mL^−1] | MIC [3, 16] [μg/mL^−1] | MIC [4] [μg/mL^−1] | MIC [5] [μg/mL^−1] | MIC [6] [μg/mL^−1] | MIC [7, 17] [μg/mL^−1] | MIC ([1]; against strain I) [j·tg mL^−1] |
| --- | --- | --- | --- | --- | --- | --- | --- | --- | --- | --- | --- | --- | --- | --- | --- |
| O=C(NNc1cccc(Cl)c1)c1ccc(F)cc1F [Compound 1b] | 0.98 (≈ 3.47 µM) | > 31.3 | 3.9 (≈ 13.8 µM) | 1.95 (≈ 6.9 µM) | > 31.3 | 7.8 (≈ 27.6 µM) | 3.9 (≈ 13.8 µM) | – | – | – | – | – | – | – | – |
| O=C(NNc1cccc(F)c1)c1ccc(F)cn1 [Compound 3a] | – | – | – | – | – | – | – | 0.24 | 31.3 | 1.95 | ≤0.06 | 7.8 | 1.95 | 0.98 | – |
| O=C(NNc1ccc(F)cc1F)c1ccc(F)cc1F [Compound 1g] | 7.8 (≈ 27.4 µM) | 1.95 (≈ 6.86 µM) | 7.8 (≈ 27.4 µM) | 0.49 (≈ 1.72 µM) | > 31.3 | 31.3 (≈ 110 µM) | 1.95 (≈ 6.86 µM) | – | – | – | – | – | – | – | – |
| O=C(NNc1cc(F)ccc1F)c1cnccn1 [Compound 9h] | 0.49 (≈ 1.96 µM) | 15.6 (≈ 62.3 µM) | 7.8 (≈ 31.2 µM) | 0.49 (≈ 1.96 µM) | > 31.3 | 1.95 (≈ 7.79 µM) | 1.95 (≈ 7.79 µM) | – | – | – | – | – | – | – | – |
| COc1cccc(NNC(=O)c2ncc(F)cc2F)c1 [Compound 7c] | 15.6 (≈ 55.9 µM) | 15.6 (≈ 55.9 µM) | 15.6 (≈ 55.9 µM) | 15.6 (≈ 55.9 µM) | > 31.3 | 31.3 (≈ 112 µM) | 15.6 (≈ 55.9 µM) | – | – | – | – | – | – | – | – |
| O=C(NNc1ccc(Cl)cc1)c1ccccn1 [Compound 2e] | – | – | – | – | – | – | – | 1.95 | 1.95 | 3.9 | 0.49 | 31.3 | 3.9 | 0.49 | – |
| O=C(NNc1cccc(Cl)c1)c1ccccn1 [Compound 2b] | – | – | – | – | – | – | – | 0.49 | 1.95 | 1.95 | 0.12 | >31.3 | 0.98 | 0.24 | – |
| O=C(NNc1ccc(F)cc1)c1cccc(Br)n1 [Compound 6d] | 0.49 (≈ 1.58 µM) | > 31.3 | 7.8 (≈ 25.2 µM) | 0.98 (≈ 3.16 µM) | 15.6 (≈ 50.3 µM) | 3.9 (≈ 12.6 µM) | 0.98 (≈ 3.16 µM) | – | – | – | – | – | – | – | – |
| O=C(NNc1ccc(F)cc1)c1cccc(F)n1 [Compound 5d] | 0.49 (≈ 1.97 µM) | 15.6 (≈ 62.6 µM) | 3.9 (≈ 15.6 µM) | 0.49 (≈ 1.97 µM) | 7.8 (≈ 31.3 µM) | 1.95 (≈ 7.82 µM) | 0.98 (≈ 3.93 µM) | – | – | – | – | – | – | – | – |
| O=C(NNc1cccc(F)c1)c1ccccn1 [Compound 2a] | – | – | – | – | – | – | – | 0.24 | 1.95 | 1.95 | 0.12 | 7.8 | 1.95 | 3.9 | – |
| O=C(NNc1ccc(F)cc1F)c1ncc(F)cc1F [Compound 7g] | 0.98 (≈ 3.44 µM) | > 31.3 | 31.3 (≈ 110 µM) | 0.98 (≈ 3.44 µM) | > 31.3 | 7.8 (≈ 27.3 µM) | 0.98 (≈ 3.44 µM) | – | – | – | – | – | – | – | – |
| O=C(NNc1ccc(F)cc1F)c1ccc(F)cn1 [Compound 3g] | 0.98 (≈ 3.67 µM) | 31.3 (≈ 117 µM) | 31.3 (≈ 117 µM) | 0.98 (≈ 3.67 µM) | 15.6 (≈ 58.4 µM) | 3.9 (≈ 14.6 µM) | 0.98 (≈ 3.67 µM) | – | – | – | – | – | – | – | – |
| O=C(NNc1cc(F)cc(F)c1)c1ccccn1 [Compound 2i] | 0.24 (≈ 0.963 µM) | 7.8 (≈ 31.3 µM) | 1.95 (≈ 7.82 µM) | 0.24 (≈ 0.963 µM) | 1.95 (≈ 7.82 µM) | 0.98 (≈ 3.93 µM) | 0.49 (≈ 1.97 µM) | – | – | – | – | – | – | – | – |
| O=C(NNc1cc(Cl)cc(Cl)c1)c1ccc(F)cc1F [Compound 1j] | 1.95 (≈ 6.15 µM) | > 31.3 | > 31.3 | 7.8 (≈ 24.6 µM) | > 31.3 | > 31.3 | 15.6 (≈ 49.2 µM) | – | – | – | – | – | – | – | 1.95 |
| COc1ccc(NNC(=O)c2ncc(F)cc2F)cc1 [Compound 7f] | 0.98 (≈ 3.51 µM) | 7.8 (≈ 27.9 µM) | 7.8 (≈ 27.9 µM) | 1.95 (≈ 6.98 µM) | > 31.3 | 31.3 (≈ 112 µM) | 1.95 (≈ 6.98 µM) | – | – | – | – | – | – | – | – |
| O=C(NNc1ccc(F)cc1)c1ccc(F)cc1F [Compound 1d] | 1.95 (≈ 7.32 µM) | 7.8 (≈ 29.3 µM) | 15.6 (≈ 58.6 µM) | 0.49 (≈ 1.84 µM) | > 31.3 | 3.9 (≈ 14.6 µM) | 3.9 (≈ 14.6 µM) | – | – | – | – | – | – | – | – |
| O=C(NNc1ccc(F)cc1)c1ncc(F)cc1F [Compound 7d] | 0.49 (≈ 1.83 µM) | 15.6 (≈ 58.4 µM) | 3.9 (≈ 14.6 µM) | 0.49 (≈ 1.83 µM) | 7.8 (≈ 29.2 µM) | 3.9 (≈ 14.6 µM) | 0.49 (≈ 1.83 µM) | – | – | – | – | – | – | – | – |
| O=C(NNc1cc(Cl)cc(Cl)c1)c1cnccn1 [Compound 9j] | 0.98 (≈ 3.46 µM) | 15.6 (≈ 55.1 µM) | 3.9 (≈ 13.8 µM) | 0.49 (≈ 1.73 µM) | > 31.3 | 3.9 (≈ 13.8 µM) | 7.8 (≈ 27.6 µM) | – | – | – | – | – | – | – | – |
| COc1ccc(NNC(=O)c2cnccn2)cc1 [Compound 9f] | 0.98 (≈ 4.01 µM) | 0.98 (≈ 4.01 µM) | 3.9 (≈ 16 µM) | 0.98 (≈ 4.01 µM) | > 31.3 | > 31.3 | 0.98 (≈ 4.01 µM) | – | – | – | – | – | – | – | – |
| O=C(NNc1cccc(F)c1)c1ccc(Br)cn1 [Compound 4a] | – | – | – | – | – | – | – | 0.24 | >31.3 | 7.8 | 0.06 | 15.6 | 0.98 | 1.95 | – |
